Results taken from patent publication US12377069B2, “Compounds, compositions, methods of using, and methods for preparing compounds” (UNIVERSITY OF LOUISVILLE RESEARCH FOUNDATION, INC., priority 2018, dated 2025).

Test system: HT29 cells
Test: RNA-Seq analysis of HT29 cells
Type: cell-based, human
Conditions: 50 μM, 24 h
Description: RNA sequencing: Total RNA was isolated from HT29 cells treated with vehicle and UroA (50 μM) (n=3) for 24 h and RNA was isolated using Trizol based lysis followed by Qiagen RNeasy kits. The isolated RNA was checked for integrity (RIN>9.5) using the Agilent Bioanalyzer 2100 system (Agilent Technologies, Santa Clara, CA) and quantified using a Qubit fluorometric assay (Thermo Fisher Scientific, Waltham, MA). Poly-A enriched […] libraries were prepared following Illumina's TruSeq Stranded mRNA LT library preparation protocol (Illumina Inc., San Diego, CA) using 1 μg of total RNA. All 15 samples were individually barcoded and quantitated with the KAPA Library Quantitation Kit for Illumina Platforms (Kapa Biosystems, Wilmington, MA) in conjunction with an Agilent Bioanalyzer DNA 1000 analysis (Agilent Technologies, Santa Clara, CA) for fragment size determination. The average fragment size was approximately 300 bp. […] of the pooled libraries with 1% PhiX spike-in was loaded on one NextSeq 500/550 75 cycle High Output Kit v2 sequencing flow cell and sequenced on the Illumina NextSeq 500 sequencer. The quality of the 1×75 bp sequences was checked using […] Quality Control Tool for High Throughput Sequence Data”). Trimming was not necessary with the median quality score above 30 (error probability=0.001 or 1 base call in 1,000 is predicted to be incorrect) across the entire length of the read and the lower quantile above a score of 20 (error probability=0.01) at the end of the read where there is an expected decrease in quality. The raw reads for each sample were directly aligned to the Homo sapiens (hg38) reference genome assembly (hg38.fa) using tophat2 (version 2.0.13) (KIM et al. (2013) “TopHat2: accurate alignment of transcriptomes in the presence of insertions, deletions and gene fusions” Genome biology, Vol. 14, Article […]), generating alignment files in bam format. Optional parameters include-no-coverage-search and -library-type fr-firststrand. […] On average, 26 million reads were aligned per sample with a mean alignment rate of 97 percent. […]

For `O=c1oc2cc(O)ccc2c2ccc(O)cc12` [UroA, 3,8-dihydroxy-6H-dibenzo[b,d]pyran-6-one], the “Cyp1A1 expression (RNA-Seq)” value was “among the top 3 UroA upregulated genes”, the “claudin 4 (Cldn4) expression (RNA-Seq)” value was “upregulated” and the “heme oxygenase 1 (HMOX1 or HO1) expression (RNA-Seq)” value was “increased the expression”.
